Calls of active or inactive are those of the source. How the calls were made is not given here.

The data set relates to CCRIS mutagenicity, Ames/micronucleus/aberration tests. Description: CCRIS mutagenicity studies.
[1] abbreviates: Test System: AMES SALMONELLA TYPHIMURIUM, Strain/Indicator: TA98, Metabolic Activation: NONE, Method: STANDARD PLATE.
[2] abbreviates: Test System: AMES SALMONELLA TYPHIMURIUM, Strain/Indicator: TA100, Metabolic Activation: NONE, Method: STANDARD PLATE.
[3] abbreviates: Test System: AMES SALMONELLA TYPHIMURIUM, Strain/Indicator: TA98, Metabolic Activation: NONE, Method: PREINCUBATION
The mark [4] stands for this setting: Test System: AMES SALMONELLA TYPHIMURIUM, Strain/Indicator: TA100, Metabolic Activation: NONE, Method: PREINCUBATION

Turning to `CNC(=O)Nc1ccccc1`, the mutagenic call under setting [1] was “inactive; negative”; the mutagenic call (Test System: AMES SALMONELLA TYPHIMURIUM, Strain/Indicator: TA98, Metabolic Activation: RAT, LIVER, S-9, AROCLOR 1254, Method: STANDARD PLATE) was “inactive; negative”; the mutagenic call under setting [2] was “inactive; negative”; the mutagenic call (Test System: AMES SALMONELLA TYPHIMURIUM, Strain/Indicator: TA100, Metabolic Activation: RAT, LIVER, S-9, AROCLOR 1254, Method: STANDARD PLATE) was “inactive; negative”; the mutagenic call (Test System: AMES SALMONELLA TYPHIMURIUM, Strain/Indicator: TA1535, Metabolic Activation: NONE, Method: STANDARD PLATE) is “inactive; negative”; the mutagenic call (Test System: AMES SALMONELLA TYPHIMURIUM, Strain/Indicator: TA1535, Metabolic Activation: RAT, LIVER, S-9, AROCLOR 1254, Method: STANDARD PLATE) is “inactive; negative”. Further, the mutagenic call is “inactive; negative” (Test System: AMES SALMONELLA TYPHIMURIUM, Strain/Indicator: TA1537, Metabolic Activation: NONE, Method: STANDARD PLATE); “inactive; negative” (Test System: AMES SALMONELLA TYPHIMURIUM, Strain/Indicator: TA1537, Metabolic Activation: RAT, LIVER, S-9, AROCLOR 1254, Method: STANDARD PLATE); “inactive; negative” (Test System: AMES SALMONELLA TYPHIMURIUM, Strain/Indicator: TA1538, Metabolic Activation: NONE, Method: STANDARD PLATE); “inactive; negative” (Test System: AMES SALMONELLA TYPHIMURIUM, Strain/Indicator: TA1538, Metabolic Activation: RAT, LIVER, S-9, AROCLOR 1254, Method: STANDARD PLATE).

Consider `CC[C@]1(O)C[C@@H]2CN(CCc3c([nH]c4ccccc34)[C@@](C(=O)OC)(c3cc4c(cc3OC)N(C)[C@H]3[C@@](O)(C(=O)OC)[C@H](OC(C)=O)[C@]5(CC)C=CCN6CC[C@]43[C@@H]65)C2)C1`, for which the mutagenic call reads like this: (End Point: IN VITRO CHROMOSOMAL ABERRATIONS, Test System: CHL/IU CELLS, Metabolic Activation: NONE) “active; positive (ploidy changes)”; (End Point: IN VITRO MICRONUCLEUS, Test System: CHL/IU CELLS, Metabolic Activation: NONE) “active; positive”; (End Point: IN VITRO MICRONUCLEUS, Test System: CHO CELLS, Metabolic Activation: RAT, LIVER, S-9, AROCLOR 1254) “active; positive”; (End Point: IN VITRO MICRONUCLEUS, Test System: HAMSTER V79 CELLS, Metabolic Activation: NONE) “active; positive”; (End Point: IN VITRO MICRONUCLEUS, Test System: HUMAN PERIPHERAL BLOOD LYMPHOCYTES (FEMALES, AGE LESS THAN 30 AND AGE GREATER THAN 50 YR), Metabolic Activation: NONE) “micronuclei elevated in elderly donors”; (End Point: IN VITRO MICRONUCLEUS, Test System: V79 CELLS, Metabolic Activation: NONE) “active; positive”. Further, the mutagenic call is “active; positive” (End Point: IN VIVO CHROMOSOMAL ABERRATIONS, Test System: BONE MARROW CELLS, Species: MOUSE, Strain/Sex: SWISS/MALE, FEMALE, Route: IP); “active; positive” (End Point: IN VIVO MICRONUCLEUS, Test System: POLYCHROMATIC ERYTHROCYTES, Species: MOUSE, Strain/Sex: ALBINO SWISS/MALE, Route: IP); “active; positive” (End Point: IN VIVO MICRONUCLEUS, Test System: POLYCHROMATIC ERYTHROCYTES, Species: MOUSE, Strain/Sex: SWISS/MALE, FEMALE, Route: IP); “inactive; negative” under setting [3]; “inactive; negative” under setting [1]; “inactive; negative” (Test System: AMES SALMONELLA TYPHIMURIUM, Strain/Indicator: TA98, Metabolic Activation: S-9, Method: PREINCUBATION). In addition, the mutagenic call (Test System: AMES SALMONELLA TYPHIMURIUM, Strain/Indicator: TA98, Metabolic Activation: S-9, Method: STANDARD PLATE) is “inactive; negative”; the mutagenic call under setting [4] was “inactive; negative”; the mutagenic call under setting [2] is “inactive; negative”; the mutagenic call (Test System: AMES SALMONELLA TYPHIMURIUM, Strain/Indicator: TA100, Metabolic Activation: S-9, Method: PREINCUBATION) was “inactive; negative”; the mutagenic call (Test System: AMES SALMONELLA TYPHIMURIUM, Strain/Indicator: TA100, Metabolic Activation: S-9, Method: STANDARD PLATE) is “inactive; negative”; the mutagenic call (Test System: AMES SALMONELLA TYPHIMURIUM, Strain/Indicator: TA1537, Metabolic Activation: S-9, Method: STANDARD PLATE) was “inactive; negative”. Besides, the mutagenic call by setting is: (Test System: E. COLI, Strain/Indicator: WP2 (HCR), Metabolic Activation: NONE, Method: STANDARD PLATE) “inactive; negative”; (Test System: E. COLI, Strain/Indicator: WP2 (HCR), Metabolic Activation: S-9, Method: STANDARD PLATE) “inactive; negative”; (Test System: MOUSE LYMPHOMA, Strain/Indicator: L5178Y(TK+/TK-), Metabolic Activation: NONE, Method: MICROWELL) “active; positive”.

On to `[CH3][Pb]([CH3])([CH3])[CH3]`, for which the mutagenic call (Test System: AMES SALMONELLA TYPHIMURIUM, Strain/Indicator: TA98, Metabolic Activation: HAMSTER, LIVER, S-9, AROCLOR 1254, Method: PREINCUBATION) was “inactive; negative”; the mutagenic call under setting [3] is “inactive; negative”; the mutagenic call (Test System: AMES SALMONELLA TYPHIMURIUM, Strain/Indicator: TA98, Metabolic Activation: RAT, LIVER, S-9, AROCLOR 1254, Method: PREINCUBATION) is “inactive; negative”; the mutagenic call (Test System: AMES SALMONELLA TYPHIMURIUM, Strain/Indicator: TA100, Metabolic Activation: HAMSTER, LIVER, S-9, AROCLOR 1254, Method: PREINCUBATION) is “inactive; negative”; the mutagenic call under setting [4] was “inactive; negative”; the mutagenic call (Test System: AMES SALMONELLA TYPHIMURIUM, Strain/Indicator: TA100, Metabolic Activation: RAT, LIVER, S-9, AROCLOR 1254, Method: PREINCUBATION) is “inactive; negative”. Moreover, the mutagenic call by setting is: (Test System: AMES SALMONELLA TYPHIMURIUM, Strain/Indicator: TA1535, Metabolic Activation: HAMSTER, LIVER, S-9, AROCLOR 1254, Method: PREINCUBATION) “inactive; negative”; (Test System: AMES SALMONELLA TYPHIMURIUM, Strain/Indicator: TA1535, Metabolic Activation: NONE, Method: PREINCUBATION) “inactive; negative”; (Test System: AMES SALMONELLA TYPHIMURIUM, Strain/Indicator: TA1535, Metabolic Activation: RAT, LIVER, S-9, AROCLOR 1254, Method: PREINCUBATION) “inactive; negative”; (Test System: AMES SALMONELLA TYPHIMURIUM, Strain/Indicator: TA1537, Metabolic Activation: HAMSTER, LIVER, S-9, AROCLOR 1254, Method: PREINCUBATION) “inactive; negative”; (Test System: AMES SALMONELLA TYPHIMURIUM, Strain/Indicator: TA1537, Metabolic Activation: NONE, Method: PREINCUBATION) “inactive; negative”; (Test System: AMES SALMONELLA TYPHIMURIUM, Strain/Indicator: TA1537, Metabolic Activation: RAT, LIVER, S-9, AROCLOR 1254, Method: PREINCUBATION) “inactive; negative”.

`O=C1NC(c2ccc([N+](=O)[O-])s2)Nc2ccccc21` (stereo unspecified): the mutagenic call is “active; positive” under setting [1] and “active; positive” under setting [2].

For the compound `Cc1ccc(Cl)cc1[N+](=O)[O-]`, the mutagenic call by setting is: under setting [3], “inactive; negative”; (Test System: AMES SALMONELLA TYPHIMURIUM, Strain/Indicator: TA98, Metabolic Activation: RAT, LIVER, S-9, KANECHLOR 500, Method: PREINCUBATION) “inactive; negative”; under setting [4], “inactive; negative”; (Test System: AMES SALMONELLA TYPHIMURIUM, Strain/Indicator: TA100, Metabolic Activation: RAT, LIVER, S-9, KANECHLOR 500, Method: PREINCUBATION) “inactive; negative”.

With `CN=NNc1ccc(C(=O)O)cc1`, the mutagenic call is, setting by setting: (Test System: AMES SALMONELLA TYPHIMURIUM, Strain/Indicator: TA92, Metabolic Activation: NONE, Method: STANDARD PLATE) “active; positive”; (Test System: E. COLI B, Strain/Indicator: TM9, Metabolic Activation: NONE, Method: STANDARD PLATE) “active; positive”.

For the origin of these results see PubChem BioAssay AID1259407 (Chemical Carcinogenesis Research Information System (CCRIS), 2018).
